For series [1], the system named is human umbilical vein endothelial cells (HUVEC). The experiment in a line: Intracellular calcium assay (Fluo-3, FLIPR) in HUVEC after thrombin. Format: cell-based. Here is the method:
To assay for intracellular calcium levels, cell media was decanted and replaced with Fluo-3 AM (Molecular Probes) in […] of loading buffer with 1% Fetal Calf Serum (FCS) for 1 hour. Cells were rinsed with loading buffer and the 96-well plate was placed into a Fluorometric Imaging Plate Reader (FLIPR, Molecular Devices, Sunnyvale, Calif.). The relative intracellular calcium levels were monitored at […] for 210 seconds in 4 to 8 identically treated wells. To monitor calcium release from intracellular stores thrombin was delivered in buffer containing 10 mM EDTA. Various phospholipase C inhibitors were applied as well.

Series [2] has the same test system. As to the kind of experiment: Thrombin-induced cell rounding / contraction of HUVEC. Particulars: for % of cells round after thrombin: thrombin 10 pM 20 minutes (control 2%, thrombin alone 80%); for effect on thrombin-induced cell rounding / contraction: thrombin 10 pM 20 minutes. The series is classed as cell-based. On the procedure: Primary cultures of pooled Human umbilical vein endothelial cells (HUVEC) cells were purchased from Clonetics (Walkersville, Md.) and cultured according to the manufacturer's protocol. About 2500 cells/cm^2 were cultured in Endothelial Cell Growth Medium BulletKit-2 (Clonetics, Walkersville, Md.) on collagen (Gibco, Grand Island, N.Y.) coated RS Lab Tek II slides for 5 days until confluent. Cells were then cultured in low serum (0.5%) medium overnight. Cells were treated with 50 mM cyclocreatine for 3 to 4 hours, or with […] ROCK (Rho Kinase) inhibitor Y-27632 for 30 minutes, as described in Maekawa et al., (1999) Science 285: 895-8, hereby incorporated by reference in its entirety.
Thrombin was delivered at a final concentration of 10 pM for 20 minutes to endothelial cells. F-actin was stained with Alexa 594 phalloidin (Molecular Probes). HUVECs were examined under fluorescence and phase contrast micrography, and cells were scored as either round or flat.

Series [3] relates to astrocytes. The experiment in a line: Intracellular calcium assay (Fluo-3, FLIPR) in astrocytes after thrombin. The series is classed as cell-based, rat. Particulars: thrombin 10 pM, cyclocreatine 50 mM 4 h or U-73122 1 μM 10 min. On the procedure:
Intracellular Calcium Assay. Astrocytes were treated with or without 50 mM cyclocreatine for 4 h. Cell medium was decanted and replaced with Fluo-3 AM (Molecular Probes) for 1 h. Some wells received 1 μM U-73122 (Biomol, Plymouth Meeting, Pa.) for 10 min before 10 pM thrombin and 10 mM EDTA injection. The relative intracellular calcium levels were monitored at […] for 210 sec in 4-8 identically treated wells by using a Fluorometric Imaging Plate Reader (Molecular Devices).
For orientation: A change in cytosolic calcium serves as a functional read-out for many receptors and channels.

Series [4] deals with Ad12HER10 retinoblasts. As to the kind of experiment: Thrombin/PAR-1 morphological response in retinoblasts. Particulars: Ad12HER10, data not shown. Format: cell-based, human. Here is the method: Dominant Negative CKB Studies. The dominant negative CKB mutant C283S, described in Lin, et al., (1994) Biochim. Biophys. Acta 1206: 97-104, was cloned into the pIRES-EGFP vector (CLONTECH) and transfected for 6 h with Novafector (VennNova, LCC) into Ad12HER10 retinoblasts seeded into Lab-Tek II slides (Nunc). After 18 h, cells were differentiated with 2 mM dibutyryl cAMP in serum-free medium for 6 h. After addition of thrombin (160 nM) for 2 h, transfected cells (20-30%) were identified by fluorescence micrography, and the cell morphology of approximately 100 transfected cells was examined with phase-contrast illumination and scored blind to treatment as either refractile or flat.

Series [5] relates to RhoA. The experiment in a line: RhoA activation and translocation assay. Particulars: astrocytes, 50 mM cyclocreatine 4 h. The series is classed as cell-based, rat. Here is the method:
RhoA Activation and Translocation Assay. Active RhoA levels were measured in primary rat astrocytes as described in Ren, et al., (1999) EMBO J. 18: 578-585. Astrocytes received a 4-h 50 mM cyclocreatine treatment before the thrombin (10 pM) addition for 10 min. Cell lysates were incubated with GST-Rhotekin binding domain (20-30 μg) for 45 min, washed, and immunoprobed with anti-RhoA antibody. For membrane RhoA, crude membrane fractions were prepared as described in Donovan, et al., (1997) J. Neurosci. 17: 5316-5326. Fifteen micrograms of membrane protein fractions was separated by SDS/PAGE and immunoblotted with anti-RhoA antibody.

Series [6] concerns platelets. The experiment in a line: Thrombin-induced platelet aggregation in platelet-rich plasma (Chrono-Log aggregometer). The series is classed as cell-based, human. Particulars: 30 min preincubation, 1 nM thrombin, PRP. On the procedure:
Blood from healthy volunteers was collected in an anti-coagulant citrate solution according to standard protocols. The whole blood/citrate solution was centrifuged at 200×g for 10 minutes to obtain platelet-rich plasma (PRP). The platelet count, as determined by Coulter Counter, was 2.88×10^8/mL. Aliquots (0.5 mL each) of the PRP were incubated with and without various concentrations of cyclocreatine (0 to 10 mM final concentration) for 30 minutes at room temperature. The aggregation assay was then carried out in the presence of thrombin (10 ul of thrombin was added to each aliquot, to a final concentration of 1 nM) with stirring at 37° C. using a Chrono-Log Whole Blood Aggregometer. (Chronolog Corp., Havertown, Pa.) Absorbance was measured at 500 nm.

The subject of series [7] is astrocytes. The experiment in a line: Total cellular ATP levels and cell viability. Format: cell-based, rat. Particulars: data not shown. On the procedure: Materials. The protein-protein interaction screen was performed by using the Matchmaker GAL4 two-hybrid system and a rat brain cDNA library (CLONTECH). Rabbit anti-PAR-1 antibody was a gift from M. Runge (University of Texas Medical Branch, Galveston), anti-CKB antibodies were obtained from Chemicon, and anti-RhoA was from Santa Cruz Biotechnology. CKB activity was measured with CK 520 Sigma. ATP levels were measured with the bioluminescent somatic cell assay (Sigma FL-ASC). Thrombin and purified CKB were purchased from Calbiochem, and cyclocreatine was purchased from Sigma. Site-directed mutagenesis was performed with Quick Change (Stratagene). G. Molloy (Delaware University) graciously provided the CKB plasmid, and T. Ma (Baylor College, Houston) provided the dominant negative CKB mutant. Statistical analysis was carried out by using two-way ANOVA.

The subject of series [8] is primary cortical astrocyte cultures. As to the kind of experiment: Astrocyte morphology studies (thrombin-induced shape change, stellate vs flat). The series is classed as cell-based, rat. Particulars: for effect on morphological response of astrocytes to thrombin / fold greater number of astrocytes remaining stellate after thrombin: 10 pM thrombin 2 h; for fold greater number of astrocytes remaining stellate after thrombin: versus thrombin alone. Here is the method: Coimmunoprecipitation. Primary cortical astrocyte cultures were prepared from 1- to 2-day-old Sprague-Dawley rats as described in Donovan, et al., (1997) J. Neurosci. 17: 5316-5326. Astrocytes were solubilized and incubated with control antibody (rabbit IgG) or anti-PAR-1 antibody overnight at 4° C. in the presence of protein A-Sepharose. Immunoprecipitation products were either subjected to CKB activity assays or separated by SDS/PAGE and analyzed on immunoblots with anti-CKB antibodies.
(§1) Astrocyte Morphology Studies. Oligonucleotides based on a CKB antisense sequence (GUGUCUGCAACAGCUUAGC-CAUCAG), a control reverse sequence ([…]), and an identical antisense sequence rendered insensitive to RNaseH were purchased from Sequitur (Natick, Mass.) and transformed into primary astrocyte cultures with Lipofectin (GIBCO/BRL) for 1 h. After 18 h, cells were differentiated in 1.5 mM dibutyryl cAMP for 2 h. A total of 10 pM thrombin was added for 2 h for a maximal response, and the morphology of approximately 200 cells was examined under phase-contrast micrography and scored as either stellate or flat. Antisense knockdown of CKB was confirmed by immunoblot analysis. Morphology assays were also performed after a 4-h treatment with 50 mM cyclocreatine.

The test system of series [9] is CKB. As to the kind of experiment: CKB immunoblot after antisense knockdown. The series is classed as cell-based, rat. Particulars: astrocytes, 18 h after transfection. Here is the method: as §1
A general note: In western blotting, separated proteins are transferred to a membrane and probed.

Entries after “also recorded” stand apart in the source; their conditions may differ. Bounds are passed on as bounds.

On to `CCCCCCCCCCCCCCCCCCOCC(COP(=O)([O-])OCC[N+](C)(C)C)OC` (centres unmarked) [ET18-OCH3], for which the “effect on thrombin-induced calcium response (peak fluorescence)” value in series [1] is “completely abolished”.

For `C[C@@H](N)[C@H]1CC[C@H](C(=O)Nc2ccncc2)CC1` [ROCK (Rho Kinase) inhibitor, Y-27632, reference compound], the “% of cells round after thrombin” value in [2] (10 mM Y-27632 for 30 minutes) was 2%. For the same molecule, the “effect on thrombin-induced cell rounding / contraction” value in [2] was “completely blocked”.

For the molecule `COc1ccc2c(c1)CC[C@@H]1[C@@H]2CC[C@]2(C)[C@@H](NCCCCCCN3C(=O)C=CC3=O)CC[C@@H]12` [U-73122, reference compound], in series [3], the “effect on thrombin-induced peak intracellular calcium” value is “inhibited”. Moreover, the “effect on thrombin-induced calcium response (peak fluorescence)” value in series [1] is listed as “completely abolished”.

Take `NC1=NCCN1CC(=O)O` [cyclocreatine]: the “effect on thrombin/PAR-1 morphological response in retinoblasts” value in series [4] is recorded as “blocked”. Also, the “RhoA translocation to the membrane after thrombin treatment” value in [5] (thrombin 10 pM) is reported as “almost no translocation”. Besides, the “GTP-RhoA after thrombin treatment (GST-rhotekin pull-down)” value in series [5] (thrombin 10 pM 10 min) is on record as “significantly reduced”. The “% Aggregation of Platelets” value in series [6] (1 mM cyclocreatine) worked out at 88%; in series [6] (5 mM cyclocreatine), 11%; in series [6] (10 mM cyclocreatine), 0%. Also, the “effect on thrombin-induced peak intracellular calcium” value in [3] is “only a minor decline”. Besides, the “effect on cell viability” value in series [7] is listed as “no effect”. In addition, the “effect on total cellular ATP levels” value in series [7] was “no effect”. The “% of cells round after thrombin” value in [2] (maximum dose of cyclocreatine (50 mM, 3 to 4 hours)) is on record as 20%. Also, the “effect on thrombin-induced cell rounding / contraction” value in [2] is recorded as “inhibited; also recorded: dose-dependent protective effect; also recorded: protected”. In addition, the “effect on morphological response of astrocytes to thrombin” value (from here on “effect on morphological response”) was “dose-dependent decrease” in [8] and “protects” in series [8] (listed as Cyclocreatine). The “fold greater number of astrocytes remaining stellate after thrombin” value in series [8] is reported as not above 4 fold. Also, in [1], the “effect on thrombin-induced calcium response (peak fluorescence)” value is “almost no effect; also recorded: no significant changes”.

On to `C/C=C(/C)C(=O)O[C@H]1C(C)=C2[C@H]([C@@H]1OC(=O)CCCCCCC)[C@@](C)(OC(C)=O)C[C@H](OC(=O)CCC)[C@@]1(O)[C@H]2OC(=O)[C@@]1(C)O` [thapsigargin], for which the “effect on thrombin-induced calcium response (peak fluorescence)” value in series [1] is given as “completely abolished”.

On to “CKB antisense ODNs: antisense oligonucleotide GUGUCUGCAACAGCUUAGC-CAUCAG directed toward the 3′ end of the CKB mRNA (Sequitur) (antisense GUGUCUGCAACAGCUUAGCCAUCAG; chemistry not given here)”, for which the “CKB expression level (Western blot)” value in series [9] is recorded as “significantly lower levels”. Moreover, in series [7], the “effect on cell viability” value is “did not affect” and the “effect on total cellular ATP levels” value is “did not affect”. Moreover, in series [8], the “effect on morphological response” value is “no longer responded” and the “fold greater number of astrocytes remaining stellate after thrombin” value is more than 3 fold. In [8] (treatment alone), the “effect on astrocyte morphology without thrombin” value is listed as “without affecting”.

Turning to “reverse sequence ODN (Rev): control reverse sequence oligonucleotide GACUACCGAUUCGACAACGUCUGUG (chemistry not given here) [reference compound]”, in series [9], the “CKB expression level (Western blot)” value is reported as “Neither a reverse sequence ODN (Rev) nor the ODN rendered insensitive to RNaseH had any significant effect”. The “effect on morphological response” value in series [8] was “Neither a reverse sequence ODN (Rev) nor the ODN rendered insensitive to RNaseH had any significant effect”.
